Results taken from patent publication US20080075786A1, “Antimicrobial agents derived from cream” (Universite de Montreal, priority 2006, published 2008).
Like-named read-outs stand apart in the source and are kept apart here.

Legend:
[1] = system: Candida albicans ZK3379 strain (CAI-4 HWP1-lacZ); assay: C. albicans HWP1-lacZ beta-galactosidase and XTT assays (kinetics of germination inhibition in hyphae inducing media); type: cell-based; conditions: for germ tube emergence and elongation: all inducing conditions tested (dextrose-free Sabouraud, Lee's, Spider, HFM7), 0-6 h (FIG. 2)
Experimental: Candida albicans ZK3379 strain (CAI-4 HWP1-lacZ; Hogan, D A, Vik A, Kolter R (2004). A Pseudomonas aeruginosa quorum-sensing molecule influences Candida albicans morphology. Mol Microbiol 54: 1212-1223.) was used for beta-galactosidase and XTT assays. Cells from this strain were grown in YPDA at 30° C. to a density of about 1×10^8 cells/ml (hemacytometer). These late exponentially growing cells were then washed twice with water and kept on ice until used. Germination was induced by incubating cells (final density of 5×10^5 cells/ ml) at 37° C. in 2.5 ml of either dextrose-free Sabouraud (Joshi et al., 1973), Lee's (Lee K L, Buckley H R, Campbell C C (1975). An amino acid liquid synthetic medium for the development of mycelial and yeast forms of Candida albicans. Sabouraudia 13: 148-153, Spider (Liu H, Kohler J, Fink Gr (1994). Suppression of hyphal formation in Candida albicans by mutation of a STE12 homolog. Science 266: 1723-1726 or Hypha-Forming Media (Biswas S K, Yokoyama K, Kamei K, Nishimur K, Miyaji M (2001) Inhibition of hyphal growth of Candida albicans by activated lansoprazole, a novel benzimidazole proton pump inhibitor Med Mycol 39: 283-285.), supplemented with FFAs. All lipids were dissolved in ethanol. Assays were performed in duplicate in 24-wells mictotiter plates (Costar 3526) without agitation. After appropriate incubation times (i.e. 0, 2, 4 or 6 h), microtiter plates were centrifuged for 5 min at 2000 rpm (Jouan inc. CR3i) and supernatents, discarded. XTT assays were done immediately and essentially as described (Honraet K, Goetghebeur E, Nelis H J (2005). Comparison of three assays for the quantification of Candida biomass in suspension and CDC reactor grown biofilms. J Microbiol Methods 63: 287-295). For beta-galactosidase assays, microtiter plates were frozen at −80° C. and processed later as described (Kippert F (1995). A rapid permeabilization procedure for accurate quantitative determination of beta-galactosidase activity in yeast cells. FEMS Microbiol Lett 128: 201-206; Hogan et al., 2004) but directly in microtiters plates. Absorbances were measured in 96-well microtiters plates using a microtiter plate reader (Microplate Reader MR600), equipped with filters of 410 nm (beta-galactosidase) and 490 nm (XTT), respectively.
As inhibition of germination of C. albicans by molecules could be the result of early and/or late blocking events, a more comprehensive analysis of the activity of free fatty acids was performed using multiple time points and other germ tube inducing media. Therefore, germination was monitored at 0, 2, 4 and 6 h in dextrose-free Sabouraud, Lee's, Spider and HFM7 (i.e. serum) media using the C. albicans HWP1-lacZ assay: beta-galactosidase measurements should reflect the morphological change from yeast cells to hyphal growth (Hogan et al., 2004). beta-galactosidase results were normalized using the XTT assay (Honraet et al., 2005) to correct for biomass increase. Microscopic observations of cells after 6 h incubation are also presented for each inducing conditions and correlated with beta-galactosidase data (FIG. 2).

[2] = system: Candida albicans SC5314 strain; assay: Germination inhibition assay (antihyphal growth activity); type: cell-based; conditions: for activity at inhibiting C. albicans germination: individual commercial free fatty acids, highest concentration used 81 μM
Experimental: The Candida albicans SC5314 strain (Fonzi, W. A. and Irwin, M. Y. 1993. Isogenic strain construction and gene mapping in Candida albicans. Genetics 134: 717-728.) was used to investigate the antihyphal activity of whey cream lipids. This strain was routinely grown as yeast cells at 30° C. in YPD medium (1% yeast extract, 2% peptone, 2% dextrose). Germination was induced by incubating cells in dextrose-free Sabouraud (Difco; Joshi, K. R., Gavin, J. B., and Bremner, D. A. 1973. The formation of germ tubes by Candida albicans in various peptone media. Sabouraudia. 11: 259-262.) at 37° C. in 96-wells microtiter plates (Costar 3595). Briefly, cells from fresh YPD cultures were harvested and washed twice with sterile water. Washed cells were suspended in dextrose-free Sabouraud at a density of 5×10^3 cells/ml and then immediately distributed to microtiter wells containing an equal volume of dextrose-free Sabouraud supplemented with different concentrations of lipids. After 15 h incubation at 37° C. in an atmospheric incubator without agitation, cells were washed and fixed with a fresh 1% formaldehyde solution. The ability of lipids to inhibit germination was determined by microscopic observations.

[3] = system: C. albicans SC5314 strain; assay: Antifungal assay against C. albicans (optical density at 630 nm); type: cell-based, Candida albicans; conditions: Candida albicans, SC5314, 40 h, dextrose-free Sabouraud, 37° C., commercial FFA
Experimental: (§1) Fractionation of Blackcurrant Seed Oil. Journal of the American Oil Chemists Society 65: 755-760). […] Under constant stirring, the mixture was heated to 75° C., or until it became clear, and then cooled slowly to 2° C. After completion of urea crystallization at 2° C. (15 h), the UFFA enriched methanol phase was separated from the urea crystals by centrifugation (5 min) at 1000×g. […] Yields were determined gravimetrically. […] UV detection was used to monitor effluent at 215 nm. Water (10 ml) was added to each of the 45 collected HPLC fractions, and they were then extracted three times with hexane (3×10 ml). […] Antifungal assay using commercial FFA were done in quadruplicates. The antifungal activity was evaluated in 96-well microtiter plates (Costar 3595) using Sabouraud as incubating medium for A. fumigatus and dextrose-free Sabouraud for C. albicans. Spores of A. fumigatus (Jeanine Joly, Université de Montréal) were germinated at 25° C. on slant agar Sabouraud media. They were harvested by washing vigorously slant cultures with 5 ml of 0.9% NaCl. Coarse debris were removed by filtrating the Aspergillus spores suspension through a sterile cotton plugs inserted into a Pasteur pipet. Monodisperse spores suspensions were obtained following brief sonications in a water bath sonicator (Branson 1210). […] Blastospores of the C. albicans SC5314 strain were prepared as for germination inhibition assays (see above). […] Wells were washed three times with Sabouraud before optical reading.

[4] = Cytotoxicity assay (LDH release); conditions: human
Experimental: Cytotoxicity was evaluated using Peripheral Blood Mononuclear cells (PBMC) of volunteers donors (Royal Victoria Hospital, Montreal). These cells were purified by the ficoll-Paque PLUS according to the manufacturer (Amersham-Bioscience). PBMC were used at a density of 100 000 cells/ml in RPMI 1640 (Sigma) supplemented with 10% heat-inactivated fetal bovine serum, 0.3 g/L of L-glutamine, 2 g/L sodium carbonate, 100 U/ml of penicillin and 100 μg/ml of streptomycin (Sigma). Assays were done in 96-well microtiter plates (Costar 3595) and the cytotoxicity was evaluated after 24 hours of incubation at 37° C. in a 5% CO2 atmospheric incubator using the LDH Cytotoxicity detection kit, according to the manufacturer (Roche Diagnostic). […] FFA were diluted in ethanol (96%) and no more than 1% ethanol (final concentration) was used in assays. Ethanol (1%) was used as negative control.
This method measures the release of lactate dehydrogenase (LDH) from the cytosol of damaged cells into the supernatant (Roche Diagnostic).

A. fumigatus = assay: Antifungal assay against A. fumigatus (optical density at 630 nm); type: cell-based
Experimental: as §1

[5] = system: C. albicans reporter strain ZK3379 (HWP1-lacZ); conditions: for Relative beta-galactosidase expression (filamentous growth): 18 h, 37° C., percentage of control cultures without fatty acids
Experimental: The effects of fatty acids gamma-linolenic acid and alpha-linolenic acid on filamentous growth of Candida albicans were determined in a filamentation assay. C. albicans reporter strain ZK3379 (HWP1-lacZ; Hogan et al., 2004) was propagated in yeast extract-peptone-dextrose (YPD) for 24 h at 30° C. Prior to the assay, cells were washed twice with phosphate-buffered saline (PBS 1×). Flasks (125 ml) containing 10 ml of prewarmed RPMI 1640/20 mM MOPS (pH 7.0) were inoculated with washed cells at a final concentration of 10^6 cells per ml. Working solutions of fatty acids (25 mM and 6.25 mM) were prepared freshly in ethanol 70%. Fatty acids were diluted in medium at final concentrations of 100 μM and 25 μM. An equal volume (40 μl) of ethanol 70% was added to control cultures. In all cultures, the final concentration of ethanol was 0.4% (v/v). Flasks were incubated at 37° C. for 18 h with shaking (ca. 200 RPM). Cells were collected by filtration (Millipore, 0.45 μm) and washed with PBS 1×. beta-galactosidase was assayed according to the method of Rose and Botstein (1983), where crude protein extracts are prepared and the activity is normalized to the amount of protein assayed. Relative amounts of beta-galactosidase activity were used as a measure of the amount of filamentous growth.

mammalian cells = assay: Toxicity for mammalian cells in vitro; type: cell-based; conditions: thousand fold less concentrated solution than 10 mM; Bergsson et al., 2001; data not shown
C. albicans yeast cells = conditions: 10 mM; cited from earlier work
[6] = commercial free fatty acids, complete inhibition of germination, 15 h, 37° C., gravimetrical quantification, read-out: MIC, antihyphal growth activity of individual free fatty acids
[7] = Candida albicans, SC5314, 15 h, read-out: MIC, antihyphal growth activity of individual free fatty acids
[8] = Candida albicans, SC5314, read-out: MIC, antihyphal growth activity of individual free fatty acids
[9] = Candida albicans, SC5314, commercial free fatty acids, complete inhibition of germination, 15 h, 37° C., gravimetrical quantification, read-out: MIC, antihyphal growth activity of individual free fatty acids
[10] = Candida albicans, SC5314, same MIC in μg/ml (in brackets), commercial free fatty acids, gravimetrical quantification, read-out: MIC, antihyphal growth activity of individual free fatty acids

Molecule	MIC [2, 6]	MIC [2, 7]	MIC [2, 8]	activity at inhibiting C. albicans germination [2]	MIC [2, 9]	MIC [2, 10]	also measured
conjugated linoleic acid [18:2(CLA 9c-11t)]	9 µM	–	–	–	–	–	germ tube emergence and elongation [1]: produced germ tubes (2-4 h), but their further elongation was blocked; MIC, antihyphal growth activity of individual free fatty acids ([2]; same MIC in μg/ml (in brackets), commercial free fatty acids, gravimetrical quantification): 2.52 µg/mL
CCCCCCCCCCCCCC(=O)O [14:0, myristic acid, reference compound]	–	> 81 µM	> 18.5 µg/mL	inactive	–	–	–
CC(C)CCCCCCCCCC(=O)O [12-methyldodecanoic acid (C13:0 i)]	–	–	–	–	–	–	IC50 [3]: ~49 µM; CC50 at 24 h [4]: 70 µM; IC50 (A. fumigatus; Aspergillus fumigatus, 40 h, Sabouraud, 30° C., commercial FFA): ~283 µM
CCCCCCCCCCCCCCC(=O)O [15:0, pentadecanoic acid, reference compound]	–	–	–	inactive	> 81 µM	> 19.6 µg/mL	–
CCCCCCCCCCCCCCCCCC(=O)O [18:0, stearic acid, reference compound]	–	> 81 µM	> 23 µg/mL	inactive	–	–	–
CCCCCCCCCCCCCCCCC(=O)O [17:0, heptadecanoic acid, reference compound]	–	–	–	inactive	> 81 µM	> 21.9 µg/mL	–
CCCCC/C=C\C/C=C\C/C=C\CCCCC(=O)O [gamma-linolenic acid (C18:3n-6), gamma-linolenic acid]	–	–	–	–	–	–	Relative beta-galactosidase expression (filamentous growth) ([5]; 25 μM): 5.9 (±6.8) %; Relative beta-galactosidase expression (filamentous growth) ([5]; 100 μM): 0.5 (±0.7) %; germination of C. albicans ([5]; 100 μM, RPMI 1640/20 mM MOPS (pH 7.0), HWP1-LacZ strain): completely inhibited; antifungal activity in RPMI 1640/20 mM MOPS media ([5]; 100 μM, data not shown): not detected; IC50 [3]: 2.34 µM; CC50 at 24 h ([4]; Toxicity (TC50) PBMCs): 41 µM; IC50 (A. fumigatus; Aspergillus fumigatus; Sabouraud, 30° C., 40 h; commercial FFA): 13.4 µM
CCCCCCCCCCCC(=O)O [12:0, lauric acid]	9 µM	–	–	–	9 µM	1.8 µg/mL	toxicity for mammalian cells in vitro (mammalian cells): not toxic; germ tube emergence and elongation [1]: completely inhibited the emergence of germ tubes; killing C. albicans yeast cells (C. albicans yeast cells): highly active
CCCCC/C=C\C/C=C\C/C=C\C/C=C\CCCC(=O)O [20:4(n-6), arachidonic acid]	27 µM	–	–	–	27 µM	8.22 µg/mL	appearance of germ tubes ([1]; Spider and HFM7 media): partially inhibited the appearance of germ tubes; appearance of germ tubes ([1]; dextrose-free Sabouraud and Lee's inducing media): strongly inhibited the appearance of germ tubes
CCCCCCCCCCCCCCCC(=O)O [16:0, palmitic acid, reference compound]	–	> 81 µM	> 20.8 µg/mL	inactive	–	–	–
CCCCCCCC/C=C\CCCCCCCC(=O)O [18:1(n-9), oleic acid, reference compound]	–	> 81 µM	> 18.5 µg/mL	no or weak activity	–	–	activity against the germination of C. albicans ([1]; all inducing media but HFM7): weak or no activity
CCCCCC/C=C\CCCCCCCC(=O)O [16:1(n-7), palmitoleic acid]	9 µM	–	–	–	9 µM	2.29 µg/mL	toxicity for C. albicans blastospores ([1]; Lee's medium, data not shown): toxic; appearance of germ tubes ([1]; Spider and HFM7 media): partially inhibited the appearance of germ tubes
CCCCC/C=C\C/C=C\CCCCCCCC(=O)O [18:2(n-6), linoleic acid]	81 µM	–	–	–	81 µM	22.7 µg/mL	germ tube emergence and elongation [1]: produced germ tubes (2-4 h), but their further elongation was blocked
